We go through 13 compounds from patent US5206239A, “Pyrroloazepine derivatives” (Suntory Limited, priority 1990, dated 1993).

Like-named read-outs stand apart in the source and are kept apart here.

Assay [1] concerns α1. In words: Anti-α1 action: inhibition of norepinephrine-induced tonic contraction of isolated guinea pig thoracic aorta. The arrangement: species or system guinea pig (Hartley, male). The following applies: tonic contraction induced by 10^-5 M norepinephrine = 100%. As for the experimental part: (§1) With respect to the compounds of the present invention, their anti-α1 action and anti-serotonin action were investigated by the testing methods which will be described below.
The thoracic aorta of each Hartley male guinea pig (body weight: 300-500 g) was excised. […] Taking the tonic contraction induced by 10^-5 M norepinephrine (NE) as 100%, the percent contractions upon addition of each test drug at 10^-8 and 10^-7 M were determined as anti-α1 action.

A short description of assay [2]: Anti-serotonin action (anti-5-HT action): inhibition of serotonin-induced phasic contraction of isolated guinea pig superior mesenteric artery. More on the design: species or system guinea pig (Hartley, male). Particulars: phasic contraction induced by 10^-5 M serotonin = 100%, read-out: Anti 5-HT action (percent contraction, % of Control); for remaining activity at 1 µM: 10^-6 M test drug; for remaining activity at 0.1 µM: 10^-7 M test drug. As for the experimental part:
as §1
Taking the phasic contraction induced by 10^-5 M serotonin as 100%, the percent contractions in the presence of each test drug at 10^-7 and 10^-6 M were determined as anti-5-HT action.

Consider `O=C1CCN(Cc2ccccc2)C(=O)c2c1ccn2CCCCN1CCC(c2ccccc2)CC1` [Compound No. 48, 7-Benzyl-1-[4-(4-phenylpiperidin-1-yl)butyl]-6,7-dihydropyrrolo[2,3-c]azepine-4,8(1H,5H)-dione], for which the “Anti α1 action (percent contraction, % of Control)” value in assay [1] (10^-7 M test drug, 0.1 µM) is recorded as 37.7 % of Control. In addition, the “Anti α1 action (percent contraction, % of Control)” value in assay [1] (10^-8 M test drug, 0.01 µM) is listed as 77.4 % of Control. Further, in assay [2], the remaining activity at 1 µM is 49% and the remaining activity at 0.1 µM came out at 88%.
Take `CN1CCC(=NO)c2ccn(CCCCN3CCC(c4ccccc4)CC3)c2C1=O` [Compound No. 51, 4-hydroxyimino-7-methyl-1-[4-(4-phenylpiperidin-1-yl)butyl]-6,7-dihydropyrrolo-[2,3-c]azepin-8(1H,5H)-one]: the “Anti α1 action (percent contraction, % of Control)” value in assay [1] (10^-7 M test drug, 0.1 µM) is listed as 30.8 % of Control. The “Anti α1 action (percent contraction, % of Control)” value in assay [1] (10^-8 M test drug, 0.01 µM) was 74.9 % of Control. Also, in assay [2], the remaining activity at 1 µM was found to be 54.4% and the remaining activity at 0.1 µM was 84.4%.
For `CN1CCC(=O)c2ccn(CCCCN3CCC(C(O)(c4ccc(F)cc4)c4ccc(F)cc4)CC3)c2C1=O` [Compound No. 54, 1-[4-[4-[Bis(4-fluorophenyl)hydroxymethyl]-piperidin-1-yl]butyl]-7-methyl-6,7-dihydropyrrolo[2,3-c]azepine-4,8(1H,5H)-dione], in that order: 26.0 % of Control, 90.4 % of Control, 14.7% and 62.9%.
As for `CN1CCC(=O)c2ccn(CCCCN3CCC(C(=O)c4ccc(F)cc4)CC3)c2C1=O` [Compound No. 60, 1-[4-[4-(4-fluorobenzoyl)piperidin-1-yl]butyl]-7-methyl-6,7-dihydropyrrolo[2,3-c]azepine-4,8(1H,5H)-dione], the “Anti α1 action (percent contraction, % of Control)” value in assay [1] (10^-7 M test drug, 0.1 µM) was 20.5 % of Control. Also, the “Anti α1 action (percent contraction, % of Control)” value in assay [1] (10^-8 M test drug, 0.01 µM) was 43.9 % of Control. Besides, in assay [2] (guinea pig), the remaining activity at 1 µM is 11.8% and the remaining activity at 0.1 µM was determined as 62.9%.
On to `CN1CCC(=NO)c2ccn(CCCCN3CCC(C(=O)c4ccc(F)cc4)CC3)c2C1=O` [Compound No. 61, 1-[4-[4-(4-fluorobenzoyl)piperidin-1-yl]butyl]-4-hydroxyimino-7-methyl-6,7-dihydropyrrolo[2,3-c]azepin-8-(1H,5H)-one], for which the “Anti α1 action (percent contraction, % of Control)” value in assay [1] (10^-7 M test drug, 0.1 µM) is listed as 21.4 % of Control; in assay [1] (10^-8 M test drug, 0.01 µM), 44.7 % of Control. The remaining activity at 1 µM in assay [2] was found to be 4.1%. Besides, the remaining activity at 0.1 µM in assay [2] came out at 12.1%.
In the case of `CN1CCC(=NO)c2ccn(CCCCN3CCC(C(=O)c4ccc(F)cc4)CC3)c2C1=O.Cc1ccc(S(=O)(=O)O)cc1` [Compound No. 62, 1-[4-[4-(4-fluorobenzoyl)piperidin-1-yl]butyl]-4-hydroxyimino-7-methyl-6,7-dihydropyrrolo[2,3-c]azepin-8(1H,5H)-one p-toluenesulfonate], the “Anti α1 action (percent contraction, % of Control)” value in assay [1] (10^-7 M test drug, 0.1 µM) is 17.1 % of Control; in assay [1] (10^-8 M test drug, 0.01 µM), 26.8 % of Control. Moreover, the remaining activity at 1 µM in assay [2] (guinea pig) was found to be 8.2%. The remaining activity at 0.1 µM in assay [2] (guinea pig) amounted to 47.4%.
On to `CCN1CCC(=NO)c2ccn(CCCCN3CCC(C(=O)c4ccc(F)cc4)CC3)c2C1=O` [Compound No. 65, 7-ethyl-1-[4-[4-(4-fluorobenzoyl)-piperidin-1-yl]butyl]-4-hydroxyimino-6,7-dihydro-pyrrolo[2,3-c]azepin-8-(1H,5H)-one], for which the “Anti α1 action (percent contraction, % of Control)” value in assay [1] (10^-7 M test drug, 0.1 µM) is given as 9.9 % of Control. In addition, the “Anti α1 action (percent contraction, % of Control)” value in assay [1] (10^-8 M test drug, 0.01 µM) was 19.5 % of Control. Moreover, in assay [2], the remaining activity at 1 µM amounted to 3.6% and the remaining activity at 0.1 µM is 19.9%.
As to `O=C(c1ccc(F)cc1)C1CCN(CCCCn2ccc3c2C(=O)N(Cc2ccccc2)CCC3=NO)CC1` [Compound No. 66], the “Anti α1 action (percent contraction, % of Control)” value in assay [1] (10^-7 M test drug, 0.1 µM) is on record as 10.4 % of Control. Besides, the “Anti α1 action (percent contraction, % of Control)” value in assay [1] (10^-8 M test drug, 0.01 µM) is 19.3 % of Control. In assay [2], the remaining activity at 1 µM came to 6.9% and the remaining activity at 0.1 µM turned out to be 77.6%.
On to `CCCN1CCC(=NO)c2ccn(CCCCN3CCC(C(=O)c4ccc(F)cc4)CC3)c2C1=O` [Compound No. 75, 1-[4-[4-(4-Fluorobenzoyl)piperidin-1-yl]butyl]-4-hydroxyimino-7-propyl-6,7-dihydropyrrolo[2,3-c]-azepin-8(1H,5H)-one], for which the “Anti α1 action (percent contraction, % of Control)” value in assay [1] (10^-7 M test drug, 0.1 µM) is 17.9 % of Control. For the same compound, the “Anti α1 action (percent contraction, % of Control)” value in assay [1] (10^-8 M test drug, 0.01 µM) is on record as 37.0 % of Control. In assay [2], the remaining activity at 1 µM was determined as 8.2% and the remaining activity at 0.1 µM is 12.9%.
For `O=C1CCNC(=O)c2c1ccn2CCCCN1CCC(C(=O)c2ccc(F)cc2)CC1` [Compound No. 81, 1-[4-[4-(4-Fluorobenzoyl)piperidin-1-yl]butyl]-6,7-dihydropyrrolo[2,3-c]azepine-4,8(1H,5H)-dione], in that order: 28.9 % of Control, 57.5 % of Control, 14.3% and 57.1%.
For `CN1CCC(=NO)c2ccn(CCCCN3CCC(Oc4ccc(F)cc4)CC3)c2C1=O` [Compound No. 84, 1-[4-[4-(4-Fluorophenoxy)piperidin-1-yl]butyl]-4-hydroxyimino-7-methyl-6,7-dihydropyrrolo[2,3-c]-azepin-8(1H,5H)-one], in that order: 67.0 % of Control, 86.5 % of Control, 3.8% and 60%.
For `CC(=O)ON=C1CCN(C)C(=O)c2c1ccn2CCCCN1CCC(C(=O)c2ccc(F)cc2)CC1` [Compound No. 91, 4-acetoxyimino-1-[4-[4-(4-fluorobenzoyl)piperidin-1-yl)butyl]-7-methyl-6,7-dihydropyrrolo[2,3-c]azepin-8(1H,5H)-one], in that order: 35.5 % of Control, 58.2 % of Control, 10.3% and 16.1%.
As to `CN1CCC(=NOC(=O)c2ccccc2)c2ccn(CCCCN3CCC(C(=O)c4ccc(F)cc4)CC3)c2C1=O` [Compound No. 92, 4-benzoyloxyimino-1-[4-[4-(4-fluorobenzoylpiperidin)-1-yl]butyl]-7-methyl-6,7-dihydropyrrolo[2,3-c]azepin-8(1H,5H)-one], the “Anti α1 action (percent contraction, % of Control)” value is given as 21.5 % of Control in assay [1] (10^-7 M test drug, 0.1 µM) and 49.3 % of Control in assay [1] (10^-8 M test drug, 0.01 µM). In addition, the remaining activity at 1 µM in assay [2] came to 12.5%. In addition, in assay [2], the remaining activity at 0.1 µM was determined as 48.5%.
